Tests used:
[1] = tested on: Puccinia recondita f. sp. tritici; assay: Puccinia recondita f. sp. tritici / wheat / leaf disc curative (brown rust); type: in vivo; details: foliar, 24 h, wheat leaf segments cv. Kanzler, compound applied 1 day after inoculation, compared to untreated control
Description: Example B9: Puccinia recondita f. Sp. Tritici/Wheat/Leaf Disc Curative (Brown Rust) Wheat leaf segments cv. Kanzler are placed on agar in multiwell plates (24-well format). The leaf segments are inoculated with a spore suspension of the fungus. Plates are stored in darkness at 19° C. and 75% rh. The formulated test compound diluted in water is applied 1 day after inoculation. The leaf segments are incubated at 19° C. and 75% rh under a light regime of 12 h light/12 h darkness in a climate cabinet and the activity of a compound is assessed as percent disease control compared to untreated when an appropriate level of disease damage appears in untreated check leaf segments (6-8 days after application). […] […]-9, and P-11.

[2] = tested on: Puccinia recondita f. sp. tritici; assay: Puccinia recondita f. sp. tritici / wheat / leaf disc preventative (brown rust); type: in vivo; details: foliar, wheat leaf segments cv. Kanzler, inoculated 1 day after application, compared to untreated control
Description: Example B10: Puccinia recondita f. Sp. Tritici/Wheat/Leaf Disc Preventative (Brown Rust) Wheat leaf segments cv. Kanzler are placed on agar in multiwell plates (24-well format) and sprayed with the formulated test compound diluted in water. The leaf disks are inoculated with a spore suspension of the fungus 1 day after application. The inoculated leaf segments are incubated at 19° C. and 75% rh under a light regime of 12 h light/12 h darkness in a climate cabinet and the activity of a compound is assessed as percent disease control compared to untreated when an appropriate level of disease damage appears in untreated check leaf segments (7-9 days after application). […] […]-10, and P-11.

Cc1sc(N(C(=O)C2CCOC2)c2cc(F)nc(F)c2)nc1C(=O)N(C(=O)C1CCOC1)C1CCC1(C)C (stereo not drawn) [Compound P-1, 2-[(2,6-difluoro-4-pyridyl)-(tetrahydrofuran-3-carbonyl)amino]-N-(2,2-dimethylcyclobutyl)-5-methyl-N-(tetrahydrofuran-3-carbonyl)thiazole-4-carboxamide]
pest or weed control at 200 ppm [1]: ≥ 80%
pest or weed control at 200 ppm [2]: ≥ 80%

Cc1sc(N(C(=O)C2CCCO2)c2cc(F)nc(F)c2)nc1C(=O)NC1CCC1(C)C (stereo not drawn) [Compound P-2, 2-[(2,6-difluoro-4-pyridyl)-(tetrahydrofuran-2-carbonyl)amino]-N-(2,2-dimethylcyclobutyl)-5-methyl-thiazole-4-carboxamide]
pest or weed control at 200 ppm [1]: ≥ 80%
pest or weed control at 200 ppm [2]: ≥ 80%

Cc1sc(N(C(=O)C2CCOC2)c2cc(F)nc(F)c2)nc1C(=O)NC1CCC1(C)C (stereo not drawn) [Compound P-3, 2-[(2,6-difluoro-4-pyridyl)-(tetrahydrofuran-3-carbonyl)amino]-N-(2,2-dimethylcyclobutyl)-5-methyl-thiazole-4-carboxamide]
pest or weed control at 200 ppm [1]: ≥ 80%
pest or weed control at 200 ppm [2]: ≥ 80%

Cc1sc(N(C(=O)C2COC2)c2cc(F)nc(F)c2)nc1C(=O)NC1CCC1(C)C (stereo not drawn) [Compound P-4, 2-[(2,6-difluoro-4-pyridyl)-(oxetane-3-carbonyl)amino]-N-(2,2-dimethylcyclobutyl)-5-methyl-thiazole-4-carboxamide]
pest or weed control at 200 ppm [1]: ≥ 80%
pest or weed control at 200 ppm [2]: ≥ 80%

Cc1sc(N(C(=O)C(C)OC(C)(C)C)c2cc(F)nc(F)c2)nc1C(=O)NC1CCC1(C)C (stereo not drawn) [Compound P-5, 2-[2-tert-butoxypropanoyl-(2,6-difluoro-4-pyridyl)amino]-N-(2,2-dimethylcyclobutyl)-5-methyl-thiazole-4-carboxamide]
pest or weed control at 200 ppm [1]: ≥ 80%
pest or weed control at 200 ppm [2]: ≥ 80%

Cc1sc(N(C(=O)C(C)OC(C)C)c2cc(F)nc(F)c2)nc1C(=O)NC1CCC1(C)C (stereo not drawn) [Compound P-6, 2-[(2,6-difluoro-4-pyridyl)-(2-isopropoxypropanoyl)amino]-N-(2,2-dimethylcyclobutyl)-5-methyl-thiazole-4-carboxamide]
pest or weed control at 200 ppm [1]: ≥ 80%
pest or weed control at 200 ppm [2]: ≥ 80%

Cc1sc(N(C(=O)COC(C)(C)C)c2cc(F)nc(F)c2)nc1C(=O)NC1CCC1(C)C (stereo not drawn) [Compound P-7, 2-[(2-tert-butoxyacetyl)-(2,6-difluoro-4-pyridyl)amino]-N-(2,2-dimethylcyclobutyl)-5-methyl-thiazole-4-carboxamide]
pest or weed control at 200 ppm [2]: ≥ 80%

COC(C)C(=O)N(c1cc(F)nc(F)c1)c1nc(C(=O)NC2CCC2(C)C)c(C)s1 (stereo not drawn) [Compound P-9, 2-[(2,6-difluoro-4-pyridyl)-(2-methoxypropanoyl)amino]-N-(2,2-dimethylcyclobutyl)-5-methyl-thiazole-4-carboxamide]
pest or weed control at 200 ppm [1]: ≥ 80%
pest or weed control at 200 ppm [2]: ≥ 80%

Cc1sc(N(C(=O)C(C)S(C)(=O)=O)c2cc(F)nc(F)c2)nc1C(=O)NC1CCC1(C)C (stereo not drawn) [Compound P-10, 2-[(2,6-difluoro-4-pyridyl)-(2-methylsulfonylpropanoyl)amino]-N-(2,2-dimethylcyclobutyl)-5-methyl-thiazole-4-carboxamide]
pest or weed control at 200 ppm [2]: ≥ 80%

Cc1sc(N(C(=O)C2CCOCC2)c2cc(F)nc(F)c2)nc1C(=O)NC1CCC1(C)C (stereo not drawn) [Compound P-11, 2-[(2,6-difluoro-4-pyridyl)-(tetrahydropyran-4-carbonyl)amino]-N-(2,2-dimethylcyclobutyl)-5-methyl-thiazole-4-carboxamide]
pest or weed control at 200 ppm [1]: ≥ 80%
pest or weed control at 200 ppm [2]: ≥ 80%
